PubChem BioAssay (NCI)
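Growth conditions: 96-well plates. Treatment: test compound, 48 hours, 5 concentrations. Analysis: linear interpolation between bracketing concentrations; unreached endpoints set to highest concentration. The concentration for 50% growth inhibition is given as GI50. TGI is the concentration that stops growth completely.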

Legend:
Experiment in all cases: DTP human tumour cell line panel, 48 h; in the data active means GI50 below about 0.43 µM; inactive means the rest
[1] = tested on: SNB-75 CNS
[2] = tested on: DU-145 prostate
[3] = tested on: SF-539 CNS
[4] = tested on: UACC-62 melanoma
[5] = tested on: HS 578T breast
[6] = tested on: NCI-H522 lung
[7] = tested on: HL-60(TB) leukemia
[8] = tested on: OVCAR-4 ovarian
[9] = tested on: U251 CNS
[10] = tested on: COLO 205 colon
[11] = tested on: SNB-19 CNS
[12] = tested on: MALME-3M melanoma
[13] = tested on: LOX IMVI melanoma
[14] = tested on: TK-10 renal
[15] = tested on: PC-3 prostate
[16] = tested on: SR leukemia
[17] = tested on: M14 melanoma
[18] = tested on: CCRF-CEM leukemia
[19] = tested on: EKVX NSCLC
[20] = tested on: SK-MEL-2 melanoma
[21] = tested on: OVCAR-3 ovarian
[22] = tested on: HT29 colon
[23] = tested on: RPMI-8226 leukemia
[24] = tested on: HCT-116 colon
[25] = tested on: BT-549 breast
[26] = tested on: A549 NSCLC
[27] = tested on: SK-MEL-28 melanoma
[28] = tested on: HCC-2998 colon
[29] = tested on: MCF7 breast
[30] = tested on: RXF 393 renal
[31] = tested on: MDA-MB-231 breast
[32] = tested on: HOP-92 NSCLC
[33] = tested on: MDA-MB-435
[34] = tested on: MOLT-4 leukemia
[35] = tested on: SK-OV-3 ovarian
[36] = tested on: SN12C renal
[37] = tested on: OVCAR-5 ovarian
[38] = tested on: SF-268 CNS
[39] = tested on: HCT-15 colon
[40] = tested on: KM12 colon
[41] = tested on: SK-MEL-5 melanoma
[42] = tested on: T-47D breast
[43] = tested on: NCI/ADR-RES ovarian
[44] = tested on: OVCAR-8 ovarian
[45] = tested on: UACC-257 melanoma
[46] = tested on: IGROV1 ovarian
[47] = tested on: A498 renal
[48] = tested on: 786-0 renal
[49] = tested on: HOP-62 NSCLC
[50] = tested on: SF-295 CNS
[51] = tested on: K-562 leukemia
[52] = tested on: UO-31 renal
[53] = tested on: NCI-H23 lung
[54] = tested on: NCI-H460 lung
[55] = tested on: NCI-H226 lung
[56] = tested on: ACHN renal
[57] = tested on: SW-620 colon
[58] = tested on: CAKI-1 renal

CCS(=O)(=O)c1ccc(OC)c(Nc2ncc(-c3ccccc3Cl)o2)c1
> 21.6 µM: TGI [20]
> 21.7 µM: TGI [30]
inactive: GI50 [1] 9.11 µM | GI50 [2] 10.1 µM | GI50 [3] 10.6 µM | GI50 [4] 11.3 µM | GI50 [5] 11.5 µM | GI50 [6] 8.95 µM | GI50 [7] 11.8 µM | GI50 [8] 13 µM | GI50 [9] 18.1 µM | GI50 [10] 6.67 µM | GI50 [11] > 21.9 µM | GI50 [12] > 25 µM | GI50 [13] 9.15 µM | GI50 [14] 16.6 µM | GI50 [15] 11.4 µM | GI50 [16] 15.5 µM | GI50 [17] 12.5 µM | GI50 [18] 9.78 µM | GI50 [19] > 21.3 µM | GI50 [20] 9.06 µM | GI50 [21] 9.38 µM | GI50 [22] 8.01 µM | GI50 [23] 13.4 µM | GI50 [24] 10.1 µM | GI50 [25] 11.8 µM | GI50 [26] 10 µM | GI50 [27] > 25 µM | GI50 [28] 18.1 µM | GI50 [29] 8.27 µM | GI50 [30] 7.35 µM | GI50 [31] 11.4 µM | GI50 [32] 3.29 µM | GI50 [33] 6.73 µM | GI50 [34] 14.1 µM | GI50 [35] 8.47 µM | GI50 [36] 14.9 µM | GI50 [37] 10.9 µM | GI50 [38] 11.7 µM | GI50 [39] 9.01 µM | GI50 [40] 7.59 µM | GI50 [41] 7.4 µM | GI50 [42] 8.57 µM | GI50 [43] 8.03 µM | GI50 [44] 9.9 µM | GI50 [45] > 25 µM | GI50 [46] 14.4 µM | GI50 [47] 3.17 µM | GI50 [48] > 17.4 µM | GI50 [49] 10.1 µM | GI50 [50] 9.43 µM | GI50 [51] 11 µM | GI50 [52] 6.37 µM | GI50 [53] 7.89 µM | GI50 [54] > 17.7 µM | GI50 [55] 7.72 µM | GI50 [56] > 19.1 µM | GI50 [57] 8.38 µM | GI50 [58] 24.3 µM
12.1 µM: TGI [47]
> 20.5 µM: TGI [22]
> 19.4 µM: TGI [41]
21.1 µM: TGI [32]
> 25 µM: TGI [2] | TGI [3] | TGI [4] | TGI [5] | TGI [6] | TGI [8] | TGI [9] | TGI [11] | TGI [12] | TGI [13] | TGI [14] | TGI [15] | TGI [16] | TGI [17] | TGI [18] | TGI [19] | TGI [21] | TGI [23] | TGI [24] | TGI [25] | TGI [26] | TGI [27] | TGI [28] | TGI [29] | TGI [31] | TGI [34] | TGI [35] | TGI [36] | TGI [37] | TGI [38] | TGI [39] | TGI [40] | TGI [42] | TGI [43] | TGI [44] | TGI [45] | TGI [46] | TGI [48] | TGI [49] | TGI [50] | TGI [51] | TGI [52] | TGI [53] | TGI [54] | TGI [55] | TGI [56] | TGI [57] | TGI [58]
24.6 µM: TGI [1]
> 21.5 µM: TGI [7]
15.4 µM: TGI [10]
> 22.1 µM: TGI [33]
